Consider one substance from article PMC5342227, “Polymer micelle formulation for the proteasome inhibitor drug carfilzomib: Anticancer efficacy and pharmacokinetic studies in mice” (PLoS ONE, 2017).

Details of data set [1]: method as in 2 sources, one per row (each row's own in cited_ref): ref 14 = [14]; PMID 23386784; doi:10.2147/BTT.S24580; 14 Nooka A , Gleason C , Casbourne D , Lonial S . Relapsed and refractory lymphoid neoplasms and multiple myeloma with a focus on carfilzomib . Biologics 2013; 7 : 13 – 32 . 10.2147/BTT.S24580 233867 ||| ref 6 = [6]; PMID 21752943; doi:10.1124/dmd.111.039164; 6 Yang J , Wang Z , Fang Y , Jiang J , Zhao F , Wong H , et al Pharmacokinetics, pharmacodynamics, metabolism, distribution, and excretion of carfilzomib in rats . Drug Metab Dispos . 2011; 39 : 1873. Particulars: cited from earlier work.

In data set [2] the target is T1, proteasome catalytic subunit β5 (Homo sapiens, UniProt P20618+P28074).
T1 construct: tumor tissue lysates (10 μg of total protein) were resolved using 12.5% SDS-PAGE; from tissue; host or cells: excised H460 xenograft tumour tissue from NOD/SCID mice
Nature of the data set: Immunoblot mobility shift of covalently modified β5 in tumor lysates. Also on record: species or system human (H460 xenograft in mice). Particulars: positive control: tumor lysates incubated with 50 nM CFZ for 2 h in vitro. The method, then:
Briefly, tumor tissue lysates (10 μg of total protein) were resolved using 12.5% SDS-PAGE and transferred onto a PVDF membrane (Bio-Rad Laboratories). Membranes were blocked in 5% milk in Tris-buffered saline containing 0.05% Tween-20 (TBST) and probed with the following antibodies; for β5 (dilution 1:1000, Abcam) and β-actin (dilution 1:1000, Cell Signaling). Membranes were washed with TBST and probed with the corresponding secondary antibodies conjugated with horseradish peroxidase. Bound antibodies were visualized using an enhanced chemiluminescence substrate (Thermo Fisher Scientific).
In general terms: In western blotting, separated proteins are transferred to a membrane and probed.

Regarding Carfilzomib [CFZ], the “solubility in aqueous media” value in data set [1] (background statement, no reference given) is on record as “practically insoluble”. The “share of CFZ eliminated from systemic circulation within 30 min” value in data set [1] (following intravenous injection, peptide backbone cleavage and epoxide hydrolysis) is above 95%. Moreover, the maximum tolerated dose in data set [1] (mice) was 5 mg/kg. Besides, in data set [2], the “β5 band mobility compared with negative control (DMSO)” value is recorded as “showed a mobility shift”.
